According to US20260034146A1, “NEUROACTIVE 19-ALKOXY-17-S[…], PRODRUGS THEREOF, AND METHODS OF TREATMENT USING SAME” (priority 2012, published 2026):

Legend:
[1] = target: picrotoxin binding site on GABAA receptors; test: [35S]-TBPS displacement (inhibition of [35S]-TBPS binding); conditions: duplicate experiments performed in triplicate; ± standard error of the mean
Protocol: The IC50 values for non-competitive displacers of [^35S]-TBPS from the picrotoxin binding site on GABAA receptors are reported in Table 1.
^aResults presented are from duplicate experiments performed in triplicate. Error limits are calculated as standard error of the mean. Methods used are known in the art (see Jiang, X., et al., Neurosteroid analogues. 9. Conformationally constrained pregnanes: structure-activity studies of 13,24-cyclo-18,21-dinorcholane analogues of the GABA modulatory and anesthetic steroids (3α,5α)- and […]. J. Med. Chem., 46: 5334-48 (2003)—the contents of which are hereby incorporated by reference in their entirety).

[2] = target: rat α1β2γ2L type GABAA receptors expressed in Xenopus laevis oocytes (Rattus norvegicus (Rat), UniProt P62813+P63138, INS375LLRMFSFK); test: Oocyte electrophysiology: potentiation of chloride currents mediated by 2 μM GABA, and direct gating; format: cell-based; conditions: ± SEM; for oocyte electrophysiology, ratio of currents in presence/absence of compound, 0.1 μM: 0.1 μM compound; for oocyte electrophysiology, ratio of currents in presence/absence of compound, 0.1 μM / oocyte electrophysiology, ratio of currents in presence/absence of compound, 1 μM / oocyte electrophysiology, ratio of currents in presence/absence of compound, 10 μM: 2 μM GABA control, N≥4 oocytes; for oocyte electrophysiology, ratio of currents in presence/absence of compound, 1 μM: 1 μM compound; for oocyte electrophysiology, ratio of currents in presence/absence of compound, 10 μM: 10 μM compound; for (gating) 10 μM, ratio of compound only current/2 μM GABA current: direct current gated by 10 μM compound in the absence of GABA, N≥4
Protocol: The compounds of the present disclosure were evaluated for the ability to potentiate chloride currents mediated by 2 μM GABA at rat α1β2γ2L type GABAA receptors expressed in Xenopus laevis oocytes and the results are shown in Table 2.
The GABA concentration used for the control response was 2 μM. Each compound was evaluated on at least four different oocytes at the concentrations indicated, and the results reported are the ratio of currents measured in the presence/absence of added compound. Gating represents direct current gated by 10 μM compound in the absence of GABA, and this current is reported as the ratio of compound only current/2 μM GABA current. Error limits are calculated as standard error of the mean (N≥4). Methods used are known in the art (see Jiang, X., et al.).

[3] = tested on: Tadpole; test: Tadpole loss of righting reflex (LRR) and loss of swimming reflex (LSR); format: in vivo; conditions: N=10 or more animals at each of five or more concentrations, ± SEM; for Tadpole LSR EC50 (μM): loss of swimming reflex; for Tadpole LRR EC50 (μM): loss of righting reflex
Protocol: Table 3 discloses the anesthetic effects of the compounds of the present disclosure. In particular, the anesthetic effect of the compounds of the present disclosure on Loss of Righting Reflex (LRR) and Loss of Swimming Reflex (LSR).
Methods used are known in the art (see Jiang, X., et al.). Error limits are calculated as standard error of the mean (N=10 or more animals at each of five or more different concentrations).

[4] = tested on: male Sprague Dawley rats; test: Rat loss of righting reflex (LRR), intravenous bolus; format: in vivo
Protocol: The plasma pharmacokinetics and a qualitative assessment of sedation were obtained in male Sprague Dawley rats according to the following procedure. Rats were dosed by intravenous bolus dose (60 seconds) via the foot dorsal vein at doses ranging from 5 to 15 mg/kg in an appropriate vehicle. In order to assess sedation, rats were gently restrained by hand to a lateral position for dose administration. […] If the animal was unable to return to an upright position, the time was recorded as the onset of loss of righting reflex (LRR). […] Sluggish or incomplete righting twice consecutively within a 30 second interval qualifies as a loss of righting reflex. After onset of LRR, animals were assessed every 5 minutes in the same manner. Recovery of righting reflex is defined as the ability of a rat to right itself completely within 20 seconds of being placed in dorsal recumbency. The duration of LRR is defined as the time interval between LRR and the return of righting reflex.

[5] = tested on: male beagle dogs; test: Dog duration of lateral recumbence, intravenous bolus; format: in vivo; conditions: dog dose 5 mg/kg
Protocol: The plasma pharmacokinetics and a qualitative assessment of sedation were obtained in male beagle dogs according to the following procedure. Dogs were dosed by intravenous bolus dose (60 seconds) via the cephalic vein at 5 mg/kg dose in an appropriate vehicle. In order to assess sedation, dogs were gently restrained for dose administration. If decreased muscle tone, limb weakness, or head drop was observed during dose administration, onset of lateral recumbence was recorded. […] Sluggish or incomplete righting to the sternal position qualifies as lateral recumbence. After onset of lateral recumbence, animals were assessed every 5 minutes in the same manner. The duration of lateral recumbence was recorded as the time interval between onset of lateral recumbence and the return to sternal position.

Structure (SMILES)	IC50 [1] [nM]	oocyte electrophysiology, ratio of currents in presence/absence of compound, 0.1 μM [2]	oocyte electrophysiology, ratio of currents in presence/absence of compound, 1 μM [2]	oocyte electrophysiology, ratio of currents in presence/absence of compound, 10 μM [2]	(gating) 10 μM, ratio of compound only current/2 μM GABA current [2]	Tadpole LSR EC50 (μM) [3]	Tadpole LRR EC50 (μM) [3]	Duration of Rat LRR ([4]; rat dose 15 mg/kg)	Duration of Dog Lateral Recumbence [5]	Duration of Rat LRR ([4]; rat dose 5 mg/kg)
COC[C@]12CCC(O)CC1CC[C@@H]1[C@@H]2CC[C@]2(C)C(=O)CC[C@@H]12 (stereo in doubt) [30, MQ-94, (3α,5β)-3-Hydroxy-19-methoxyandrostan-17-one]	> 30000	0.90 ± 0.02	0.88 ± 0.01	0.84 ± 0.02	0.03	None	–	–	–	–
COC[C@]12CC[C@H](O)CC1=CC[C@@H]1[C@@H]2CC[C@]2(C)[C@@H](OC)CC[C@@H]12 [26, MQ-100, (3β,17β)-17,19-Dimethoxyandrost-5-en-3-ol]	17800	0.83 ± 0.03	0.76 ± 0.02	0.78 ± 0.02	0.02 ± 0.02	None	None	–	–	–
COC[C@]12CC[C@@H](O)C[C@@H]1CC[C@H]1[C@@H]3CC[C@H](OC)[C@@]3(C)CC[C@@H]12 [8, MQ-89, (5α,17β)-17,19-Dimethoxyandrostan-3-ol]	56 ± 2	1.65 ± 0.08	7.63 ± 0.77	20.9 ± 2.73	0.22 ± 0.01	–	–	C (C >20 min)	C (C >20 min)	–
COC[C@]12CC[C@@H](O)C[C@@H]1CC[C@H]1[C@@H]3CC[C@H](C(=O)CO)[C@@]3(C)CC[C@@H]12 [20, MQ-98, (3α,5α)-3,21-Dihydroxy-19-methoxypregnan-20-one]	345 ± 61	0.98 ± 0.01	2.76 ± 0.27	19.0 ± 2.31	0.09 ± 0.05	–	–	A (A <10 min)	–	–
COC[C@]12CC[C@@H](O)C[C@@H]1CC[C@H]1[C@@H]3CC[C@H]([N+](=O)[O-])[C@@]3(C)CC[C@@H]12 [29, MQ-97, (3α,5α,17β)-19-methoxy-17-nitroandrostan-3-ol]	37 ± 4	2.07 ± 0.09	15.7 ± 1.45	26.6 ± 4.34	0.11 ± 0.01	–	–	B (B 10-20 min)	C (C >20 min)	–
COC[C@]12CCC(=O)C=C1CC[C@@H]1[C@@H]2CC[C@]2(C)[C@@H](OC)CC[C@@H]12 [24, MQ-99, (17β)-17,19-Dimethoxyandrost-4-en-3-one]	14500	0.88 ± 0.08	0.63 ± 0.06	1.06 ± 0.17	0.11 ± 0.17	None	None	–	–	–
COC[C@]12CC[C@@H](O)C[C@@H]1CC[C@@H]1[C@@H]2CC[C@@]2(C)[C@H]1CC[C@@]21CO1 [12, MQ-90, (3α,5α,17β)-19-Methoxyspiro[androstane-17,2′-oxiran]-3-ol]	79 ± 4	1.24 ± 0.05	7.40 ± 1.43	18.7 ± 6.19	0.14 ± 0.04	–	–	–	–	–
COC[C@]12CC[C@H](O)C[C@@H]1CC[C@H]1[C@@H]3CC[C@H](OC)[C@@]3(C)CC[C@@H]12 [31, MQ-96, (3β,5α,17β)-17,19-Dimethoxyandrostan-3-ol]	7800	0.91 ± 0.02	0.97 ± 0.05	1.10 ± 0.05	0.02 ± 0	–	–	–	–	–
COC[C@]12CC[C@@H](O)C[C@@H]1CC[C@@H]1[C@@H]2CC[C@]2(C)C(C#N)=CC[C@@H]12 [15, MQ-91, (3α,5α)-3-Hydroxy-19-methoxyandrost-16-ene-17-carbonitrile]	118 ± 13	1.27 ± 0.13	5.34 ± 0.86	25.6 ± 3.23	0.10 ± 0.09	–	–	–	–	–
COC[C@]12CCC(=O)C[C@@H]1CC[C@H]1[C@@H]3CC[C@H](OC)[C@@]3(C)CC[C@@H]12 [7, MQ-88, (5α,17β)-17,19-Dimethoxyandrostan-3-one]	8700	1.00 ± 0	0.85 ± 0.01	1.07 ± 0.02	0.04 ± 0.03	–	–	–	–	–
COC[C@]12CC[C@@H](O)C[C@@H]1CC[C@H]1[C@@H]3CC[C@H](C(C)=O)[C@@]3(C)CC[C@@H]12 [17, MQ-93, (3α,5α)-3-Hydroxy-19-methoxypregnan-20-one]	47 ± 4	2.15 ± 0.19	12.8 ± 1.74	33.8 ± 5.44	0.23 ± 0.07	–	–	C (C >20 min)	–	–
COC[C@]12CC[C@@H](O)C[C@@H]1CC[C@H]1[C@@H]3CC[C@H](C#N)[C@@]3(C)CC[C@@H]12 [16, MQ-92, (3α,5α,17β)-3-Hydroxy-19-methoxyandrostane-17-carbonitrile]	63 ± 7	1.52 ± 0.02	9.79 ± 0.53	25.7 ± 2.11	0.25 ± 0.11	–	–	–	B (B 10-20 min)	B (B 10-20 min)
COC[C@]12CC[C@@H](O)CC1=CC[C@@H]1[C@@H]2CC[C@]2(C)[C@@H](OC)CC[C@@H]12 [25, MQ-101, (3α,17β)-17,19-Dimethoxyandrost-5-en-3-ol]	583 ± 71	0.94 ± 0.07	1.97 ± 0.08	15.7 ± 0.90	0.08 ± 0.07	–	–	–	–	–
